Earlier results as cited in patent publication US20240252348A1, “EVA SEGMENTED INTRAVAGINAL RINGS CONTAINING PROGESTERONE” (priority 2019, published 2024).

Tested on: women with a short cervix
Settings: singleton pregnant women with short cervical length (SCL)

With `CCCCCC(=O)O[C@]1(C(C)=O)CC[C@H]2[C@@H]3CCC4=CC(=O)CC[C@]4(C)[C@H]3CC[C@@]21C` [Makena, 17-alpha hydroxyprogesterone caproate] as the molecule, how does the “prevention of preterm birth” value read?
The value was “ineffective”.
